Reference: patent publication US10947389B2, “Composition, film, near infrared cut filter, laminate, pattern forming method, solid image pickup element, image display device, infrared sensor, and color filter” (FUJIFILM Corporation, priority 2016, dated 2021)

What was measured:
[1] = Evaluation of absorption maximum and absorbance ratio (500 nm/λmax) in solution; assay type: physicochemical; settings: for Absorbance Ratio (500 nm/λmax) / Absorption Maximum (nm): solvent chloroform; for λmax (nm) of Second Near Infrared Absorbing Compound: as listed in Table 58
Description: In this specification, “having an absorption maximum in a wavelength range of 650 to 1000 nm” denotes having a maximum absorbance in a wavelength range of 650 to 1000 nm in an absorption spectrum of the near infrared absorbing compound in a solution. Examples of a measurement solvent used for the measurement of the absorption spectra of the near infrared absorbing compound in the solution include chloroform, methanol, dimethyl sulfoxide, ethyl acetate, and tetrahydrofuran. In the case of a compound which is soluble in chloroform, chloroform is used as the measurement solvent. In the case of a compound which is not soluble in chloroform, methanol is used. In addition, In the case of a compound which is not soluble in chloroform and methanol, dimethyl sulfoxide is used.
Each of the compounds was dissolved in a measurement solvent shown in the following tables (concentration: 2.5×10^−6 mol/L) to measure an absorption spectrum (optical path length: 10 mm).
In addition, an absorbance ratio (500 nm/λmax) as a value obtained by dividing an absorbance at a wavelength of 500 nm by an absorbance at an absorption maximum was evaluated based on the following criteria.
A: the absorbance ratio (500 nm/λmax) was 0.04 or lower
B: the absorbance ratio (500 nm/λmax) was higher 0.04 and 0.08 or lower
C: the absorbance ratio (500 nm/λmax) was higher than 0.08

[2] = Evaluation of solubility in water at 23° C.; assay type: physicochemical; settings: stirred for 1 hour
Procedure: Each of the compounds was added to water at 23° C. under the atmospheric pressure, the components were stirred for 1 hour, and the solubility of the compound in water was obtained. The solubility of the compound was evaluated based on the following criteria.
A: the solubility in water at 23° C. was 0.1 mass % or lower
B: the solubility in water at 23° C. was higher than 0.1 mass % and 1 mass % or lower
C: the solubility in water at 23° C. was higher than 1 mass %

Row | Absorption Maximum (nm) [1] | λmax (nm) of Second Near Infrared Absorbing Compound [1] | Second Near Infrared Absorbing Compound λmax (nm) ([1]; absorption maximum of the second near infrared absorbing compound) | Structure (SMILES) | Absorbance Ratio (500 nm/λmax) [1] | Solubility [2]
1 | 745 nm |  |  | Cc1ccc2oc(C(C#N)=c3c4c(-c5ccc(OCC(CCCCCCCC(C)C)CCCCCC(C)C)cc5)n(B(c5ccccc5)c5ccccc5)c(=C(C#N)c5nc6cc(C)ccc6o5)c4c(-c4ccc(OCC(CCCCCCCC(C)C)CCCCCC(C)C)cc4)n3B(c3ccccc3)c3ccccc3)nc2c1 (stereo not shown) [II-167] | A (the absorbance ratio (500 nm/λmax) was 0.04 or lower) | A (the solubility in water at 23 °C was 0.1 mass % or lower)
2 | 743 nm |  |  | CC(C)CCCCCCCC(CCCCCC(C)C)COc1ccc(-c2c3c(=C(C#N)c4nc5ccccc5n4C)n(B(c4ccccc4)c4ccccc4)c(-c4ccc(OCC(CCCCCCCC(C)C)CCCCCC(C)C)cc4)c3c(=C(C#N)c3nc4ccccc4n3C)n2B(c2ccccc2)c2ccccc2)cc1 (stereo not shown) [II-697] | A (the absorbance ratio (500 nm/λmax) was 0.04 or lower) | A (the solubility in water at 23 °C was 0.1 mass % or lower)
3 | 885 nm |  |  | CC(C)CCCCCCCC(CCCCCC(C)C)COc1ccc(-c2c3c(=C(C#N)c4cnc5cc(Cl)c(Cl)cc5n4)n(B(c4ccccc4)c4ccccc4)c(-c4ccc(OCC(CCCCCCCC(C)C)CCCCCC(C)C)cc4)c3c(=C(C#N)c3cnc4cc(Cl)c(Cl)cc4n3)n2B(c2ccccc2)c2ccccc2)cc1 (stereo not shown) [III-167] | A (the absorbance ratio (500 nm/λmax) was 0.04 or lower) | A (the solubility in water at 23 °C was 0.1 mass % or lower)
4 | 783 nm |  |  | CC(C)CCCCCCCC(CCCCCC(C)C)COc1cccc(-c2c3c(=C(C#N)c4nc5ccccc5s4)n(B(c4ccccc4)c4ccccc4)c(-c4cccc(OCC(CCCCCCCC(C)C)CCCCCC(C)C)c4)c3c(=C(C#N)c3nc4ccccc4s3)n2B(c2ccccc2)c2ccccc2)c1 (stereo not shown) [II-525] | A (the absorbance ratio (500 nm/λmax) was 0.04 or lower) | A (the solubility in water at 23 °C was 0.1 mass % or lower)
5 | 740 nm |  |  | CC(C)CCCCCCCC(CCCCCC(C)C)COc1ccc(-c2c3c(=C(C#N)c4nc5ccccc5o4)n(B(c4ccccc4)c4ccccc4)c(-c4ccc(OCC(CCCCCCCC(C)C)CCCCCC(C)C)cc4)c3c(=C(C#N)c3nc4ccccc4o3)n2B(c2ccccc2)c2ccccc2)cc1 (stereo not shown) [II-9] | A (the absorbance ratio (500 nm/λmax) was 0.04 or lower) | A (the solubility in water at 23 °C was 0.1 mass % or lower)
6 | 738 nm |  |  | CC(C)CCCCCCCC(CCCCCC(C)C)COc1ccc(-c2c3c(=C(C#N)c4nc5cc(Cl)ccc5o4)n(B(c4ccccc4)c4ccccc4)c(-c4ccc(OCC(CCCCCCCC(C)C)CCCCCC(C)C)cc4)c3c(=C(C#N)c3nc4cc(Cl)ccc4o3)n2B(c2ccccc2)c2ccccc2)cc1 (stereo not shown) [II-325] | A (the absorbance ratio (500 nm/λmax) was 0.04 or lower) | A (the solubility in water at 23 °C was 0.1 mass % or lower)

Second part, the molecule before the results:

Row | Structure (SMILES) | Absorption Maximum (nm) [1] | λmax (nm) of Second Near Infrared Absorbing Compound [1] | Second Near Infrared Absorbing Compound λmax (nm) ([1]; absorption maximum of the second near infrared absorbing compound) | Absorbance Ratio (500 nm/λmax) [1] | Solubility [2]
7 | CC(CCC(COc1cccc(-c2c3/c(=C(\C#N)c4ccc5ccccc5n4)n(B(c4ccccc4)c4ccccc4)c(-c4cccc(OCC(CCC(C)CC(C)(C)C)C(C)CC(C)(C)C)c4)c3/c(=C(\C#N)c3ccc4ccccc4n3)n2B(c2ccccc2)c2ccccc2)c1)C(C)CC(C)(C)C)CC(C)(C)C (stereo not shown) [III-358] | 814 nm |  |  | A (the absorbance ratio (500 nm/λmax) was 0.04 or lower) | A (the solubility in water at 23 °C was 0.1 mass % or lower)
8 | CC(C)CCCCCCCC(CCCCCC(C)C)COc1cccc(-c2c3c(=C(C#N)c4nc5ccccc5s4)n(B4Oc5ccccc5O4)c(-c4cccc(OCC(CCCCCCCC(C)C)CCCCCC(C)C)c4)c3c(=C(C#N)c3nc4ccccc4s3)n2B2Oc3ccccc3O2)c1 (stereo not shown) [II-589] | 719 nm | 719 nm |  | A (the absorbance ratio (500 nm/λmax) was 0.04 or lower) | A (the solubility in water at 23 °C was 0.1 mass % or lower)
9 | CC(CCC(COc1cccc(-c2c3/c(=C(\C#N)c4nc5cc(Cl)ccc5o4)n(B4Oc5ccccc5O4)c(-c4cccc(OCC(CCC(C)CC(C)(C)C)C(C)CC(C)(C)C)c4)c3/c(=C(\C#N)c3nc4cc(Cl)ccc4o3)n2B2Oc3ccccc3O2)c1)C(C)CC(C)(C)C)CC(C)(C)C (stereo not shown) [II-408] | 680 nm | 680 nm |  | A (the absorbance ratio (500 nm/λmax) was 0.04 or lower) | A (the solubility in water at 23 °C was 0.1 mass % or lower)
10 | CCCCC(CC)COc1ccc(B2N=c3/c(=C4/C(=O)C(c5ccc6cccc7c6c5NB(c5ccc(OCC(CC)CCCC)cc5)N7)=C4O)ccc4cccc(c34)N2)cc1 (stereo not shown) [Compound Q-39] | 822 nm |  |  | A (the absorbance ratio (500 nm/λmax) was 0.04 or lower) | A (the solubility in water at 23 °C was 0.1 mass % or lower)
11 | CCCCCCCCCCC(CCCCCCCC)COc1cccc(-c2c3/c(=C(\C#N)c4nc5ccccc5o4)n(B(c4ccccc4)c4ccccc4)c(-c4cccc(OCC(CCCCCCCC)CCCCCCCCCC)c4)c3/c(=C(\C#N)c3nc4ccccc4o3)n2B(c2ccccc2)c2ccccc2)c1 (stereo not shown) [II-29] | 743 nm | 743 nm |  | A (the absorbance ratio (500 nm/λmax) was 0.04 or lower) | A (the solubility in water at 23 °C was 0.1 mass % or lower)
12 | CCCCC(CC)CC(=O)Nc1cc2c(cc1C1=C([O-])/C(=c3/cc4c(cc3NC(=O)CC(CC)CCCC)=[N+](C)C(C)C4(C)C)C1=O)C(C)(C)C(C)N2C (stereo not shown) [Compound Q-36] | 704 nm | 704 nm |  | A (the absorbance ratio (500 nm/λmax) was 0.04 or lower) | A (the solubility in water at 23 °C was 0.1 mass % or lower)
13 | CC(C)CCCCCCCC(CCCCCC(C)C)COc1cccc(-c2c3c(=C(C#N)c4nc5ccccc5o4)n(B4Oc5ccccc5O4)c(-c4cccc(OCC(CCCCCCCC(C)C)CCCCCC(C)C)c4)c3c(=C(C#N)c3nc4ccccc4o3)n2B2Oc3ccccc3O2)c1 (stereo not shown) [II-91] | 679 nm | 679 nm |  | A (the absorbance ratio (500 nm/λmax) was 0.04 or lower) | A (the solubility in water at 23 °C was 0.1 mass % or lower)
14 | Cc1ccc2oc(/C(C#N)=c3/c4c(-c5cccc(OCC(CCC(C)CC(C)(C)C)C(C)CC(C)(C)C)c5)n(B(c5ccccc5)c5ccccc5)/c(=C(/C#N)c5nc6cc(C)ccc6o5)c4c(-c4cccc(OCC(CCC(C)CC(C)(C)C)C(C)CC(C)(C)C)c4)n3B(c3ccccc3)c3ccccc3)nc2c1 (stereo not shown) [II-186] | 748 nm |  | 743 nm | A (the absorbance ratio (500 nm/λmax) was 0.04 or lower) | A (the solubility in water at 23 °C was 0.1 mass % or lower)
15 | Cc1ccc2oc(/C(C#N)=c3/c4c(-c5ccc(OCC(CCC(C)CC(C)(C)C)C(C)CC(C)(C)C)cc5)n(B(c5ccccc5C)c5ccccc5C)/c(=C(/C#N)c5nc6cc(C)ccc6o5)c4c(-c4ccc(OCC(CCC(C)CC(C)(C)C)C(C)CC(C)(C)C)cc4)n3B(c3ccccc3C)c3ccccc3C)nc2c1 (stereo not shown) [II-202] | 737 nm |  |  | A (the absorbance ratio (500 nm/λmax) was 0.04 or lower) | A (the solubility in water at 23 °C was 0.1 mass % or lower)
16 | CCCCCCCCCCC(CCCCCCCC)COc1cccc(-c2c3c(=C(C#N)c4cnc5ccccc5n4)n(B(c4ccccc4)c4ccccc4)c(-c4cccc(OCC(CCCCCCCC)CCCCCCCCCC)c4)c3c(=C(C#N)c3cnc4ccccc4n3)n2B(c2ccccc2)c2ccccc2)c1 (stereo not shown) [III-29] | 863 nm |  |  | A (the absorbance ratio (500 nm/λmax) was 0.04 or lower) | A (the solubility in water at 23 °C was 0.1 mass % or lower)
17 | Cc1ccc2oc(C(C#N)=c3c4c(-c5cccc(OCC(CCCCCCCC(C)C)CCCCCC(C)C)c5)n(B5Oc6cc7ccccc7cc6O5)c(=C(C#N)c5nc6cc(C)ccc6o5)c4c(-c4cccc(OCC(CCCCCCCC(C)C)CCCCCC(C)C)c4)n3B3Oc4cc5ccccc5cc4O3)nc2c1 (stereo not shown) [II-274] | 685 nm | 685 nm |  | A (the absorbance ratio (500 nm/λmax) was 0.04 or lower) | A (the solubility in water at 23 °C was 0.1 mass % or lower)
18 | CCCCN1/C(=C/C2=C([O-])C(=C/c3sc4c5ccccc5ccc4[n+]3CCCC)/C2=O)Sc2c1ccc1ccccc21 [Compound Q-54] | 698 nm |  |  | A (the absorbance ratio (500 nm/λmax) was 0.04 or lower) | A (the solubility in water at 23 °C was 0.1 mass % or lower)
